Consider one molecule from PMC4460958 (Frontiers in Neurology, 2015).

The assay addresses T1, human dopamine transporter (hDAT) (Homo sapiens, UniProt Q01959).
T1 construct: gene SLC6A3

T1 sequence (Q01959 whole entry): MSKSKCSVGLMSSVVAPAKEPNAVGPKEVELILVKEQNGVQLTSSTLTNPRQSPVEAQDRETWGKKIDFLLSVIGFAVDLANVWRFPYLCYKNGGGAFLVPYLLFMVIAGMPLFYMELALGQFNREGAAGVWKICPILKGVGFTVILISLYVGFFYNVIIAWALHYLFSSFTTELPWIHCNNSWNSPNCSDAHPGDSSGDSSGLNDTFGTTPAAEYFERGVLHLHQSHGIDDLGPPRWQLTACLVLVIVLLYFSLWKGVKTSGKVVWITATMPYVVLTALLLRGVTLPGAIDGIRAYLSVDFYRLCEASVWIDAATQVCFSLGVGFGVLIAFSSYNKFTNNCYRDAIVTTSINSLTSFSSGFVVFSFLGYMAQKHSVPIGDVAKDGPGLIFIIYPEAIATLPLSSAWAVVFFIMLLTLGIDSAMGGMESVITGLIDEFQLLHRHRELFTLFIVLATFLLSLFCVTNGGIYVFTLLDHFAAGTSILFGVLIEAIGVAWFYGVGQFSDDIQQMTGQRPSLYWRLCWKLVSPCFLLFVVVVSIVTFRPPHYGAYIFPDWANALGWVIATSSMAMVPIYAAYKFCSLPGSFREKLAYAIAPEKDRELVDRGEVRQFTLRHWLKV

Turning to `NCCc1ccc(O)c(O)c1` [DA, dopamine], the “3H-dopamine uptake kinetics (Km, Vmax) in PAE cells stably expressing hDAT” value is “Michaelis–Menten non-linear regression analysis was performed, providing transporter dopamine affinity (Km) and capacity (Vmax) for each condition”.
